# According to patent US20080207708A1, “Oxazole and Thiazole Compounds and Their Use in the Treatment of Pge2 Mediated Disorders” (GLAXO GROUP LIMITED, priority 2005, published 2008):
# Counter-ions that a name gives are not always drawn.
# Target: T1, EP1 receptors (Homo sapiens, UniProt P34995)
# T1 sequence (P34995 1-402): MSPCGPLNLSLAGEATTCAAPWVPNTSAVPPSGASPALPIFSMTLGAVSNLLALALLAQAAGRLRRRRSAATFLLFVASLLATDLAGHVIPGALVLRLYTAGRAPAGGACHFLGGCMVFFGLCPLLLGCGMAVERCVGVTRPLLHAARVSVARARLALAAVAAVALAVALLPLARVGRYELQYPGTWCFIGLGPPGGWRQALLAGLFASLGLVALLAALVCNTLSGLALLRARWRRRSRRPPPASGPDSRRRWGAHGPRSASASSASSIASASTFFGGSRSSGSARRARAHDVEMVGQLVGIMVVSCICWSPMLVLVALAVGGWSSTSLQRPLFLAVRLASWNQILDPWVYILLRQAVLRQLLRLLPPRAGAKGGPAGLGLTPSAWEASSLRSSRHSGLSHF
# Assay: Binding assay for the human prostanoid EP1 receptor (competition with [3H]-PGE2)
# Design: expressed in transfected cells; host or cells: CHO-K1 cells, membrane fraction
# Details: [3H]-PGE2 competition; averages of a number of experiments; read-out: pIC50 value, binding assay for the human prostanoid EP1 receptor (converted)
# Experimental: Competition assay using [^3H]-PGE2.
# Compound potencies are determined using a radioligand binding assay. In this assay compound potencies are determined from their ability to compete with tritiated prostaglandin E2 ([^3H]-PGE2) for binding to the human EP1 receptor.
# This assay utilises Chinese hamster ovary-K1 (CHO-K1) cells into which a stable vector containing the EP1 cDNA has previously been transfected. Cells are cultured in suitable flasks containing culture medium such as DMEM:F-12 supplemented with 10% v/v foetal calf serum, 2 mM L-glutamine, 0.25 mg/ml geneticin, 10 μg/ml puromycin and 10 μM indomethacin.
# Cells are detached from the culture flasks by incubation in calcium and magnesium free phosphate buffered saline containing 1 mM disodium ethylenediaminetetraacetic acid (Na2EDTA) and 10 μM indomethacin for 5 min. The cells are isolated by centrifugation at 250×g for 5mins and suspended in an ice cold buffer such as 50 mM Tris, 1 mM Na2EDTA, 140 mM NaCl, 10 μM indomethacin (pH 7.4). The cells are homogenised using a Polytron tissue disrupter (2×10 s burst at full setting), centrifuged at 48,000×g for 20mins and the pellet containing the membrane fraction is washed (optional) three times by suspension and centrifugation at 48,000×g for 20mins. The final membrane pellet is suspended in an assay buffer such as 10 mM 2-[N-morpholino]ethanesulphonic acid, 1 mM Na2EDTA, 10 mM MgCl2 (pH 6). Aliquots are frozen at […] until required.
# For the binding assay the cell membranes, competing compounds and [^3H]-PGE2 (3 nM final assay concentration) are incubated in a final volume of 100 μl for 30 min at 30° C. All reagents are prepared in assay buffer. Reactions are terminated by rapid vacuum filtration over GF/B filters using a Brandell cell harvester. The filters are washed with ice cold assay buffer, dried and the radioactivity retained on the filters is measured by liquid scintillation counting in Packard TopCount scintillation counter.
# The data are analysed using non linear curve fitting techniques to determine the concentration of compound producing 50% inhibition of specific binding (IC50).
row,SMILES,IC50 [nM]
1,"O=C(O)c1nc(Cc2cc(Cl)ccc2OCc2ccc(F)cc2F)cs1 [Example 74, Sodium 4-[(5-chloro-2-{[(2,4-difluorophenyl)methyl]oxy}phenyl)methyl]-1,3-thiazole-2-carboxylate]",≤ 31.6
2,"O=C(O)c1csc(Nc2cc(Cl)ccc2OCc2ccccc2)n1 [Example 75, Sodium 2-({5-chloro-2-[(phenylmethyl)oxy]phenyl}amino)-1,3-thiazole-4-carboxylate]",≤ 1000
3,"O=C(O)c1nc(Cc2cc(Cl)ccc2OCc2ccccc2)cs1 [Example 76, Sodium 4-({5-chloro-2-[(phenylmethyl)oxy]phenyl}methyl)-1,3-thiazole-2-carboxylate]",≤ 31.6
4,"O=C(O)c1nc(Cc2cc(Cl)ccc2OCc2ccc(F)cc2)cs1 [Example 77, Sodium 4-[(5-chloro-2-{[(4-fluorophenyl)methyl]oxy}phenyl)methyl]-1,3-thiazole-2-carboxylate]",≤ 31.6
5,"O=C(O)c1coc(Cc2cc(Cl)ccc2OCc2ccccc2)n1 [Example 78, Sodium 2-({5-chloro-2-[(phenylmethyl)oxy]phenyl}methyl)-1,3-oxazole-4-carboxylate]",≤ 31.6
6,"CC(C)COc1ccc(Cl)cc1C(F)(F)c1nc(C(=O)O)cs1 [Example 82, Sodium 2-[{5-chloro-2-[(2-methylpropyl)oxy]phenyl}(difluoro)methyl]-1,3-thiazole-4-carboxylate]",≤ 1000
7,"O=C(O)c1nc(Cc2cc(Cl)ccc2OCc2ccccc2Cl)cs1 [Example 83, Sodium 4-[(5-chloro-2-{[(2-chlorophenyl)methyl]oxy}phenyl)methyl]-1,3-thiazole-2-carboxylate]",≤ 31.6
8,"O=C(O)c1nc(Cc2cc(Cl)ccc2OCc2ccccc2F)cs1 [Example 84, Sodium 4-[(5-chloro-2-{[(2-fluorophenyl)methyl]oxy}-phenyl)methyl]-1,3-thiazole-2-carboxylate]",≤ 31.6
9,"O=C(O)c1nc(Cc2cc(Cl)ccc2OCc2c(F)cc(F)cc2F)cs1 [Example 85, Sodium 4-[(5-chloro-2-{[(2,4,6-trifluorophenyl)methyl]-oxy}phenyl)methyl]-1,3-thiazole-2-carboxylate]",≤ 31.6
10,"O=C(O)c1nc(Cc2cc(Cl)ccc2OCc2ccc(Cl)cc2)cs1 [Example 86, Sodium 4-[(5-chloro-2-{[(4-chlorophenyl)methyl]-oxy}phenyl)methyl]-1,3-thiazole-2-carboxylate]",≤ 31.6
11,"O=C(O)c1nc(Cc2cc(Cl)ccc2OCc2ccc(F)cc2Cl)cs1 [Example 87, Sodium 4-[(5-chloro-2-{[(2-chloro-4-fluorophenyl)methyl]oxy}-phenyl)methyl]-1,3-thiazole-2-carboxylate]",≤ 31.6
12,"O=C(O)c1nc(Cc2cc(Cl)ccc2OCc2cc(F)c(F)cc2F)cs1 [Example 89, Sodium 4-[(5-chloro-2-{[(2,4,5-trifluorophenyl)methyl]-oxy}phenyl)methyl]-1,3-thiazole-2-carboxylate]",≤ 31.6
13,"NC(=O)c1csc(Cc2cc(Cl)ccc2OCc2ccccc2)n1 [Example 90, 2-({5-Chloro-2-[(phenylmethyl)oxy]phenyl}methyl)-1,3-thiazole-4-carboxamide]",≤ 1000
14,"O=C(NS(=O)(=O)c1ccccc1)c1csc(Cc2cc(Cl)ccc2OCc2ccccc2)n1 [Example 100, 2-({5-Chloro-2-[(phenylmethyl)oxy]phenyl}methyl)-N-(phenylsulfonyl)-1,3-thiazole-4-carboxamide]",≤ 31.6
15,"Clc1ccc(OCc2ccccc2)c(Cc2nc(-c3nnn[nH]3)cs2)c1 [Example 109, 5-[2-({5-Chloro-2-[(phenylmethyl)oxy]phenyl}methyl)-1,3-thiazol-4-yl]-1H-tetrazole]",≤ 31.6
16,"O=C1CN(Cc2ccc(NC(=O)c3csc(Cc4cc(Cl)ccc4OCc4ccccc4)n3)cc2)CCN1 [Example 122, 2-({5-Chloro-2-[(phenylmethyl)oxy]phenyl}-methyl)-N-{4-[(3-oxo-1-piperazinyl)methyl]phenyl}-1,3-thiazole-4-carboxamidehydrochloride]",≤ 31.6
17,"CC(C)COc1ccc(Cl)cc1Cc1nc(-c2nc3ccc(CN4CCCC4)cc3[nH]2)cs1 [Example 123, 2-[2-({5-Chloro-2-[(2-methylpropyl)oxy]phenyl}-methyl)-1,3-thiazol-4-yl]-5-(1-pyrrolidinylmethyl)-1H-benzimidazole hydrochloride]",≤ 31.6
18,"Clc1ccc(OCc2ccccc2)c(Cc2nc(-c3nc4ccc(Cl)nc4[nH]3)cs2)c1 [Example 138, 5-Chloro-2-[2-({5-chloro-2-[(phenylmethyl)oxy]phenyl}methyl)-1,3-thiazol-4-yl]-1H-imidazo[4,5-b]pyridinehydrochloride]",≤ 31.6
19,"Clc1ccc(OCc2ccccc2)c(Cc2nc(-c3nnc[nH]3)cs2)c1 [Example 156, 3-[2-({5-Chloro-2-[(phenylmethyl)oxy]phenyl}methyl)-1,3-thiazol-4-yl]-1H-1,2,4-triazole]",≤ 1000
20,"CC(C)COc1ccc(Cl)cc1Cc1nc(-c2nnc[nH]2)cs1 [Example 157, 3-[2-({5-Chloro-2-[(2-methyl-propyl)oxy]-phenyl}methyl)-1,3-thiazol-4-yl]-1H-1,2,4-triazole]",≤ 1000
21,"CC(C)(C)OC(=O)Nc1coc(Cc2cc(Cl)ccc2OCc2ccccc2)n1 [Example 161, 1,1-Dimethylethyl [2-({5-chloro-2-[(phenylmethyl)oxy]phenyl}methyl)-1,3-oxazol-4-yl]carbamate]",> 1000
22,"CC(C)COc1ccc(Cl)cc1Cc1nc(-c2nc3ccccc3[nH]2)co1 [Example 162, 2-[2-({5-Chloro-2-[(2-methylpropyl)oxy]phenyl}methyl)-1,3-oxazol-4-yl]-1H-benzimidazole hydrochloride]",≤ 31.6

# Other lines, results leading:
row,IC50 [nM],SMILES
1,≤ 1000,"O=C(O)Cc1csc(-c2cc(Cl)ccc2OCc2ccc(F)cc2Cl)n1 [Example 66, Sodium [2-(5-chloro-2-{[(2-chloro-4-fluorophenyl)methyl]oxy}phenyl)-1,3-thiazol-4-yl]acetate]"
2,≤ 1000,"O=C(O)Cc1csc(-c2cc(Cl)ccc2OCc2c(F)ccc(F)c2F)n1 [Example 67, Sodium [2-(5-chloro-2-{[(2,3,6-trifluorophenyl)methyl]oxy}phenyl)-1,3-thiazol-4-yl]acetate]"
3,≤ 1000,"O=C(O)Cc1csc(-c2cc(Cl)ccc2OCc2cc(F)c(F)cc2F)n1 [Example 68, Sodium [2-(5-chloro-2-{[(2,4,5-trifluorophenyl)methyl]oxy}phenyl)-1,3-thiazol-4-yl]acetate]"
4,≤ 1000,"O=C(O)Cc1csc(-c2cc(Cl)ccc2OCc2cc(F)c(F)c(F)c2)n1 [Example 69, Sodium [2-(5-chloro-2-{[(3,4,5-trifluorophenyl)methyl]oxy}phenyl)-1,3-thiazol-4-yl]acetate]"
5,≤ 1000,"O=C(O)Cc1csc(-c2cc(Cl)ccc2OCc2ccccc2Cl)n1 [Example 70, Sodium [2-(5-chloro-2-{[(2-chlorophenyl)methyl]oxy}phenyl)-1,3-thiazol-4-yl]acetate]"
6,≤ 31.6,"O=C(O)Cc1csc(-c2cc(Cl)ccc2OCc2ccc(Cl)cc2)n1 [Example 71, Sodium [2-(5-chloro-2-{[(4-chlorophenyl)methyl]oxy}phenyl)-1,3-thiazol-4-yl]acetate]"
7,≤ 1000,"O=C(O)Cc1csc(-c2cc(Cl)ccc2OCc2ccc(F)cc2)n1 [Example 72, Sodium [2-(5-chloro-2-{[(4-fluorophenyl)methyl]oxy}phenyl)-1,3-thiazol-4-yl]acetate]"
8,≤ 31.6,"O=C(O)Cc1csc(-c2cc(Cl)ccc2OCc2ccccc2)n1 [Example 73, Sodium [2-{5-chloro-2-[(phenylmethyl)oxy]phenyl}-1,3-thiazol-4-yl)acetate]"
9,≤ 1000,"O=C(O)c1nc(Cc2cc(Cl)ccc2OCc2c(F)ccc(F)c2F)cs1 [Example 88, Sodium 4-[(5-chloro-2-{[(2,3,6-trifluorophenyl)methyl]-oxy}phenyl)methyl]-1,3-thiazole-2-carboxylate]"
